In the CombiSolv-Exp solvation set (Vermeire and Green 2021):
Values belong to the compound of their own block, whether it stands above or below them.

Assay: solvent given as SMILES
[1] = in CCCCCCCC(=O)OCC(COC(=O)CCCCCCC)OC(=O)CCCCCCC
[2] = in CCCCCCCCC=CCCCCCCCC(=O)OCC(COC(=O)CCCCCCCC=CCCCCCCCC)OC(=O)CCCCCCCC=CCCCCCCCC

solvation free energy, 298 K (in CCCCCCCCCCCCCCCC): -5.74 kcal/mol
solvation free energy, 298 K (in N#Cc1ccccc1): -8 kcal/mol
solvation free energy, 298 K (in O): -6.79 kcal/mol
SMILES: OCc1ccccc1

SMILES: FCCF
solvation free energy, 298 K (in CCCO): -3.64 kcal/mol

solvation free energy, 298 K (in CCCCCCCC): -5.33 kcal/mol
solvation free energy, 298 K (in CCCCCCCCCC): -5.22 kcal/mol
SMILES: CC(C)CCC(C)O (centres undefined)

SMILES: Oc1ccc(Br)cc1Br
solvation free energy, 298 K (in O): -5.69 kcal/mol

solvation free energy, 298 K (in O): 0.42 kcal/mol
SMILES: C=C1CCC2C(C)CCC3C(C12)C3(C)C (centres undefined)

SMILES: ClCCCCCl
solvation free energy, 298 K (in CC(C)=O): -6.56 kcal/mol
solvation free energy, 298 K (in O): -2.32 kcal/mol

solvation free energy, 298 K (in CC(=O)N(C)C): -18.4 kcal/mol
solvation free energy, 298 K (in CN(C)C=O): -18.5 kcal/mol
solvation free energy, 298 K (in O): 5.74 kcal/mol
SMILES: CCCCCCCCCCCCCCCCCCCCCCCCCCC

solvation free energy, 298 K (in O): -13.9 kcal/mol
SMILES: CC(C(=O)O)c1ccc(C(=O)c2cccs2)cc1 (centres undefined)

SMILES: CC1CCCC1
solvation free energy, 298 K (in CC1CCS(=O)(=O)C1): -2.51 kcal/mol
solvation free energy, 298 K (in CC#N): -2.8 kcal/mol
solvation free energy, 298 K (in CCCCCCCCCC): -3.93 kcal/mol
solvation free energy, 298 K (in CCCCCCCO): -3.51 kcal/mol
solvation free energy, 298 K (in CCCCCO): -3.51 kcal/mol
solvation free energy, 298 K (in CN1CCCC1=O): -2.99 kcal/mol
solvation free energy, 298 K (in CN1CCCCC1=O): -3.16 kcal/mol
solvation free energy, 298 K (in CN(C)C=O): -3 kcal/mol
solvation free energy, 298 K (in CNC=O): -2.67 kcal/mol
solvation free energy, 298 K (in COCCO): -2.99 kcal/mol
solvation free energy, 298 K (in CS(C)=O): -2.47 kcal/mol
solvation free energy, 298 K (in O): 1.6 kcal/mol
solvation free energy, 298 K (in O=CN1CCOCC1): -2.47 kcal/mol
solvation free energy, 298 K (in OC1CCCCC1): -3.44 kcal/mol
solvation free energy, 298 K (in OCCOCCO): -1.85 kcal/mol
solvation free energy, 298 K (in OCCS): -2.33 kcal/mol
solvation free energy, 298 K (in OCc1ccccc1): -3.01 kcal/mol

solvation free energy, 298 K (in O): -1.08 kcal/mol
SMILES: C=C1CCC(C(C)C)c2cc(C)ccc21 (centres undefined)

solvation free energy, 298 K (in C=CCCCCCCCCCCCCCC): -8.43 kcal/mol
solvation free energy, 298 K (in O): -13.3 kcal/mol
SMILES: O=C(O)c1ccc(CO)cc1

solvation free energy, 298 K (in O): -7.78 kcal/mol
SMILES: COc1cc(C=O)c(Cl)c(OC)c1O

SMILES: COP(=S)(OC)SCn1nnc2ccccc2c1=O
solvation free energy, 298 K (in O): -10 kcal/mol

SMILES: CCCCCCI
solvation free energy, 298 K (in O): 0.08 kcal/mol

SMILES: FCC(F)(F)F
solvation free energy, 298 K [1]: -1.21 kcal/mol
solvation free energy, 298 K (in CCCCCCCCC): -0.76 kcal/mol
solvation free energy, 298 K (in CCCCCCCCO): -0.89 kcal/mol
solvation free energy, 298 K (in CN1CCCC1=O): -1.96 kcal/mol
solvation free energy, 298 K (in CN(C)C=O): -2.21 kcal/mol
solvation free energy, 298 K (in O): 0.56 kcal/mol

SMILES: c1ccc2c(c1)oc1ccccc12
solvation free energy, 298 K (in CC(=O)N(C)C): -9.94 kcal/mol
solvation free energy, 298 K (in CN1CCCC1=O): -10 kcal/mol
solvation free energy, 298 K (in O): -3.31 kcal/mol

solvation free energy, 298 K (in O): -11.8 kcal/mol
SMILES: Nc1ccc(N)c2c1C(=O)c1ccccc1C2=O

solvation free energy, 298 K (in C=CCCCCCCC=C): -2.71 kcal/mol
solvation free energy, 298 K (in C=CCCCCCCCCCCCCCC): -2.41 kcal/mol
solvation free energy, 298 K (in [2H]O[2H]): -6.55 kcal/mol
SMILES: CC(=O)O

solvation free energy, 298 K (in O): 2.55 kcal/mol
SMILES: CCCCCC1CCCC1

SMILES: C1=CCCC=C1
solvation free energy, 298 K (in C1CCC2CCCCC2C1): -4.14 kcal/mol
solvation free energy, 298 K (in C1CCC(C2CCCCC2)CC1): -4.06 kcal/mol
solvation free energy, 298 K (in CN1CCCC1=O): -3.77 kcal/mol
solvation free energy, 298 K (in O): -0.26 kcal/mol
solvation free energy, 298 K (in c1ccc2c(c1)CCCC2): -4.31 kcal/mol
solvation free energy, 298 K (in c1ccc(C2CCCCC2)cc1): -4.19 kcal/mol

solvation free energy, 298 K (in C1COCCO1): -12.3 kcal/mol
SMILES: Nc1ccc(O)cc1

SMILES: Clc1ccc(-c2ccc(Cl)c(Cl)c2Cl)cc1Cl
solvation free energy, 298 K (in CCCCCCCCO): -12.9 kcal/mol

solvation free energy, 298 K (in CC(C)CC(C)(C)C): -7.14 kcal/mol
solvation free energy, 298 K (in O): -5.72 kcal/mol
SMILES: c1ccc2ncccc2c1

SMILES: CC(Cl)Cl
solvation free energy, 298 K (in CCCCCCCCO): -3.29 kcal/mol
solvation free energy, 298 K (in ClC(Cl)(Cl)Cl): -3.78 kcal/mol
solvation free energy, 298 K (in ClC(Cl)Cl): -4.11 kcal/mol
solvation free energy, 298 K (in ClCCCl): -4.02 kcal/mol
solvation free energy, 298 K (in O): -0.84 kcal/mol

SMILES: C#CCCCCCC
solvation free energy, 298 K (in CN1CCCC1=O): -4.98 kcal/mol
solvation free energy, 298 K (in CN(C)C=O): -4.99 kcal/mol
solvation free energy, 298 K (in CS(C)=O): -4.42 kcal/mol
solvation free energy, 298 K (in N#CCCCCC#N): -4.31 kcal/mol
solvation free energy, 298 K (in NCCO): -3.17 kcal/mol
solvation free energy, 298 K (in O): 0.71 kcal/mol

SMILES: CCNc1nc(Cl)nc(NC(C)(C)C)n1
solvation free energy, 298 K (in O): -8.66 kcal/mol

SMILES: COP(=S)(OC)Oc1ccc([N+](=O)[O-])cc1
solvation free energy, 298 K (in O): -7.19 kcal/mol

solvation free energy, 298 K (in O): -2.99 kcal/mol
SMILES: CC(=O)OCCC(C)CCC=C(C)C (centres undefined)

SMILES: OCCCl
solvation free energy, 298 K (in Brc1ccccc1): -4.8 kcal/mol
solvation free energy, 298 K (in CCCCCCCCCCO): -5.73 kcal/mol
solvation free energy, 298 K (in CCCCCCCCO): -5.87 kcal/mol
solvation free energy, 298 K (in Cc1ccc(C)cc1): -4.77 kcal/mol
solvation free energy, 298 K (in Cc1cccc(C)c1): -4.69 kcal/mol
solvation free energy, 298 K (in Cc1ccccc1C): -4.74 kcal/mol
solvation free energy, 298 K (in Clc1ccccc1): -4.62 kcal/mol
solvation free energy, 298 K (in O): -6.28 kcal/mol

SMILES: C=CCCl
solvation free energy, 298 K (in O): -0.57 kcal/mol

solvation free energy, 298 K (in O): -9.07 kcal/mol
SMILES: O=C(O)CCCc1ccccc1

SMILES: Brc1cccc(Br)c1
solvation free energy, 298 K (in O): -1.99 kcal/mol

solvation free energy, 298 K (in O): -11.3 kcal/mol
SMILES: CC(C(=O)O)c1ccc(N2CC=CC2)c(Cl)c1 (centres undefined)

solvation free energy, 298 K (in O): -2.78 kcal/mol
SMILES: C=C(c1ccccc1)c1ccccc1

solvation free energy, 298 K (in C=CCCCCCCC=C): -14.8 kcal/mol
solvation free energy, 298 K (in C=CCCCCCCCCCCCCCC): -14.7 kcal/mol
solvation free energy, 298 K (in O): -20.5 kcal/mol
SMILES: Nc1ncnc2c1ncn2C1CCC(CO)O1 (centres undefined)

solvation free energy, 298 K (in O): -5.45 kcal/mol
SMILES: CCc1cnccn1

SMILES: CC(C)CO[N+](=O)[O-]
solvation free energy, 298 K (in O): -1.88 kcal/mol

solvation free energy, 298 K (in O): -6.02 kcal/mol
SMILES: CCNCc1ccc(C)cc1

SMILES: COC(=O)c1ccccc1O
solvation free energy, 298 K (in Cc1ccc(C)cc1): -7.64 kcal/mol

solvation free energy, 298 K (in CCCCCC): -7.93 kcal/mol
solvation free energy, 298 K (in CCCCCCC): -7.93 kcal/mol
solvation free energy, 298 K (in CCCCCCCC): -7.93 kcal/mol
solvation free energy, 298 K (in CCCCCCCCCC): -7.93 kcal/mol
solvation free energy, 298 K (in CCCCOCCCC): -11.8 kcal/mol
solvation free energy, 298 K (in O): -10.7 kcal/mol
SMILES: O=[N+]([O-])c1ccc(O)cc1

solvation free energy, 298 K (in CCCCCCCC): -4.93 kcal/mol
solvation free energy, 298 K (in CCCCCCCCCC): -4.85 kcal/mol
SMILES: CCC(O)C(C)(C)C (centres undefined)

SMILES: C1=CCC=CC1
solvation free energy, 298 K (in C1CCC2CCCCC2C1): -4.4 kcal/mol
solvation free energy, 298 K (in C1CCC(C2CCCCC2)CC1): -4.34 kcal/mol
solvation free energy, 298 K (in CCC(C)=O): -4.41 kcal/mol
solvation free energy, 298 K (in O): -0.67 kcal/mol
solvation free energy, 298 K (in c1ccc2c(c1)CCCC2): -4.58 kcal/mol
solvation free energy, 298 K (in c1ccc(C2CCCCC2)cc1): -4.49 kcal/mol

SMILES: ClCC(Cl)(Cl)Cl
solvation free energy, 298 K (in O): -1.43 kcal/mol

solvation free energy, 298 K (in O): -2.24 kcal/mol
SMILES: CCCCCC(=O)OCC

SMILES: Oc1c(Cl)c(Cl)c(Cl)c(Cl)c1Cl
solvation free energy, 298 K [2]: -10.3 kcal/mol
solvation free energy, 298 K (in O): -4.99 kcal/mol

solvation free energy, 298 K (in O): -4.79 kcal/mol
SMILES: CCC(=O)CC(C)=O

solvation free energy, 298 K (in O): -3.96 kcal/mol
SMILES: CCCCC(CC)CO (centres undefined)

solvation free energy, 298 K (in O): -4.35 kcal/mol
SMILES: CCCC(=O)CC(=O)CC

solvation free energy, 298 K (in O): -6.55 kcal/mol
SMILES: CC(C)CCCCOC(=O)c1ccccc1C(=O)OCCCCC(C)C

SMILES: FC(F)=C(F)C(F)(F)F
solvation free energy, 298 K [1]: -0.41 kcal/mol
solvation free energy, 298 K (in CCCCCCCCO): -0.32 kcal/mol
solvation free energy, 298 K (in COCCO): 3.88 kcal/mol

solvation free energy, 298 K (in O): -17.7 kcal/mol
SMILES: Cc1nc(NS(=O)(=O)c2ccc(N)cc2)oc1C

SMILES: CN1C2CCC1CC(OC(=O)C(CO)c1ccccc1)C2 (centres undefined)
solvation free energy, 298 K (in CCO): -18 kcal/mol

solvation free energy, 298 K (in O): -2.22 kcal/mol
SMILES: CC(C)COC=O

SMILES: C1COCCOCCOCCOCCOC1
solvation free energy, 298 K (in Cc1cccc(C)c1): -11.4 kcal/mol
solvation free energy, 298 K (in O): -12.5 kcal/mol

SMILES: CCOP(=S)(OCC)Oc1nc(Cl)c(Cl)cc1Cl
solvation free energy, 298 K [2]: -14.4 kcal/mol

solvation free energy, 298 K (in O): -1.27 kcal/mol
SMILES: C=Cc1ccccc1

solvation free energy, 298 K (in C=CCCCCCCCCCCCCCC): -10.2 kcal/mol
solvation free energy, 298 K (in O): -12.9 kcal/mol
SMILES: N#CCc1ccc(C(=O)O)cc1

solvation free energy, 298 K (in O): -3.2 kcal/mol
SMILES: CCCCCCCCCCCCCN

solvation free energy, 298 K (in O): 4.12 kcal/mol
SMILES: CCCCCCCCCCCCC

SMILES: Clc1c(Cl)c(Cl)c(Cl)c(Cl)c1Cl
solvation free energy, 298 K (in C1CCOC1): -11 kcal/mol
solvation free energy, 298 K (in C1COCCO1): -10.8 kcal/mol
solvation free energy, 298 K (in CC(C)CC(C)(C)C): -10 kcal/mol
solvation free energy, 298 K (in CC(C)CCO): -9.59 kcal/mol
solvation free energy, 298 K (in CCCC(C)O): -9.45 kcal/mol
solvation free energy, 298 K (in CCCCC(CC)CO): -9.86 kcal/mol
solvation free energy, 298 K (in CCCCCC): -10.2 kcal/mol
solvation free energy, 298 K (in CCCCCCC): -10.2 kcal/mol
solvation free energy, 298 K (in CCCCCCCC): -10.3 kcal/mol
solvation free energy, 298 K [2]: -9.52 kcal/mol
solvation free energy, 298 K (in CCCCCCCCCC): -10.3 kcal/mol
solvation free energy, 298 K (in CCCCCCCCO): -9.78 kcal/mol
solvation free energy, 298 K (in CCCCCl): -10.6 kcal/mol
solvation free energy, 298 K (in CCCCOC(C)=O): -10.4 kcal/mol
solvation free energy, 298 K (in CCCCOCCCC): -10.4 kcal/mol
solvation free energy, 298 K (in CCOC(C)=O): -10.2 kcal/mol
solvation free energy, 298 K (in COC(C)=O): -10.2 kcal/mol

SMILES: Oc1ccc(Cl)c(Cl)c1
solvation free energy, 298 K (in O): -7.29 kcal/mol
